Measured values published in the supplement of paper PMC8612539.
Values after ≈ are worked out from the molar mass of the structure shown.

Key:
Mannheimia haemolytica = assay: minimum inhibitory concentration (MIC)
Experimental: (§1)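 Broth microdilution MIC (Sensititre BOPO7F bovine plate, CLSI methods) of 19 antimicrobials against field isolates of P. multocida, M. haemolytica, H. somni (deep nasopharyngeal swabs) and E. coli, Enterococcus spp. (rectal swabs) from weaned dairy heifers. Incubation 16-24 h at 35 C. MIC is the lowest concentration preventing visible growth. Values with <= or > lie at the tested range limits. Trimethoprim-sulfamethoxazole is given as the trimethoprim component of a 1:19 mixture.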

Enterococcus spp. = assay: minimum inhibitory concentration (MIC)
Experimental: as §1

CC[C@H]1OC(=O)C[C@@H](O)[C@H](C)[C@@H](O[C@@H]2O[C@H](C)[C@@H](O)[C@H](N(C)C)[C@H]2O)[C@@H](CCN2CCCCC2)C[C@@H](C)C(=O)/C=C/C(C)=C/[C@@H]1CN1CCCCC1 [Tildipirosin]
minimum inhibitory concentration [µg/mL]
Settings	Enterococcus spp.	Mannheimia haemolytica
isolate (source animal id): 2	8 (≈ 10.9 µM)	–
isolate (source animal id): 35	> 16	–
isolate (source animal id): 42	8 (≈ 10.9 µM)	–
isolate (source animal id): 44	16 (≈ 21.8 µM)	–
isolate (source animal id): 79	16 (≈ 21.8 µM)	–
isolate (source animal id): 88	8 (≈ 10.9 µM)	–
isolate (source animal id): 91	8 (≈ 10.9 µM)	–
isolate (source animal id): 92	16 (≈ 21.8 µM)	–
isolate (source animal id): 111	8 (≈ 10.9 µM)	–
isolate (source animal id): 122	> 16	–
isolate (source animal id): 123	16 (≈ 21.8 µM)	–
isolate (source animal id): 133	8 (≈ 10.9 µM)	–
isolate (source animal id): 158	> 16	–
isolate (source animal id): 168	> 16	–
isolate (source animal id): 169	16 (≈ 21.8 µM)	–
isolate (source animal id): 171	16 (≈ 21.8 µM)	–
isolate (source animal id): 175	> 16	–
isolate (source animal id): 177	> 16	–
isolate (source animal id): 181	16 (≈ 21.8 µM)	–
isolate (source animal id): 182	16 (≈ 21.8 µM)	–
isolate (source animal id): 183	8 (≈ 10.9 µM)	–
isolate (source animal id): 187	16 (≈ 21.8 µM)	–
isolate (source animal id): 190	16 (≈ 21.8 µM)	–
isolate (source animal id): 194	16 (≈ 21.8 µM)	–
isolate (source animal id): 195	16 (≈ 21.8 µM)	–
isolate (source animal id): 197	16 (≈ 21.8 µM)	–
isolate (source animal id): 211	16 (≈ 21.8 µM)	–
isolate (source animal id): 214	16 (≈ 21.8 µM)	–
isolate (source animal id): 222	16 (≈ 21.8 µM)	–
isolate (source animal id): 223	8 (≈ 10.9 µM)	–
isolate (source animal id): 228	> 16	–
isolate (source animal id): 230	> 16	–
isolate (source animal id): 235	> 16	–
isolate (source animal id): 236	8 (≈ 10.9 µM)	–
isolate (source animal id): 239	8 (≈ 10.9 µM)	–
isolate (source animal id): 241	> 16	–
isolate (source animal id): 244	16 (≈ 21.8 µM)	–
isolate (source animal id): 246	16 (≈ 21.8 µM)	–
isolate (source animal id): 247	> 16	–
isolate (source animal id): 250	16 (≈ 21.8 µM)	–
isolate (source animal id): 252	> 16	–
isolate (source animal id): 268	> 16	–
isolate (source animal id): 282	8 (≈ 10.9 µM)	–
isolate (source animal id): 285	> 16	–
isolate (source animal id): 288	–	≤ 1
isolate (source animal id): 289	16 (≈ 21.8 µM)	–
isolate (source animal id): 290	16 (≈ 21.8 µM)	–
isolate (source animal id): 291	–	≤ 1
isolate (source animal id): 293	–	16 (≈ 21.8 µM)
isolate (source animal id): 296	16 (≈ 21.8 µM)	–
isolate (source animal id): 298	8 (≈ 10.9 µM)	> 16
isolate (source animal id): 299	–	> 16
isolate (source animal id): 300	–	≤ 1
isolate (source animal id): 301	8 (≈ 10.9 µM)	–
isolate (source animal id): 302	–	> 16
isolate (source animal id): 304	–	> 16
isolate (source animal id): 306	–	≤ 1
isolate (source animal id): 308	–	≤ 1
isolate (source animal id): 309	–	≤ 1
isolate (source animal id): 310	> 16	–
isolate (source animal id): 313	–	> 16
isolate (source animal id): 318	–	8 (≈ 10.9 µM)
isolate (source animal id): 320	8 (≈ 10.9 µM)	≤ 1
isolate (source animal id): 321	–	> 16
isolate (source animal id): 323	–	> 16
isolate (source animal id): 324	–	16 (≈ 21.8 µM)
isolate (source animal id): 326	–	> 16
isolate (source animal id): 328	–	> 16
isolate (source animal id): 329	–	> 16
isolate (source animal id): 331	8 (≈ 10.9 µM)	–
isolate (source animal id): 333	16 (≈ 21.8 µM)	> 16
isolate (source animal id): 335	–	16 (≈ 21.8 µM)
isolate (source animal id): 338	–	16 (≈ 21.8 µM)
isolate (source animal id): 341	> 16	–
